# From patent publication US6355799B1, “Substituted benzene compounds, process for their preparation, and herbicidal and defoliant compositions containing them” (ISK Americas Incorporated, priority 1997, dated 2002)
# Key:
# Type in all cases: in vivo
# [1] = tested on: redroot pigweed (Amaranthus retroflexus, AMARE); experiment: Pre-emerge test, greenhouse herbicide activity screening; conditions: rating scale 0-100, 14 days after application
# Outline: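 Compounds in acetone were track-sprayed at 15-1000 g ai/ha (187 l/ha) on sandy loam pots: pre-emerge one day after seeding, post-emerge at 2-3 leaf stage with 0.25% v/v non-ionic surfactant. Phytotoxicity was rated 14 days later on a 0 (no damage) to 100 (complete death) scale.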
# [2] = tested on: barnyardgrass (Echinochloa crus-galli, ECHCG); experiment: as above; conditions: rating scale 0-100, 14 days after application
# Outline: (§1)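 Visual ratings on a 0-100 scale (0 no damage, 100 all plants dead) were taken at 14 days after treatment. Rates of 15-1000 g ai/ha in acetone, 187 l/ha, were sprayed onto soil one day after planting (pre-emerge) or onto 2-3 leaf plants with 0.25% v/v surfactant (post-emerge).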
# [3] = tested on: green foxtail (Setaria viridis, SETVI); experiment: as above; conditions: rating scale 0-100, 14 days after application
# Outline: as §1
# [4] = tested on: ivyleaf morningglory (Ipomoea hederacea, IPOHE); experiment: as above; conditions: rating scale 0-100, 14 days after application
# Outline: as §1
# [5] = tested on: johnsongrass (Sorghum halepense, SORHA); experiment: as above; conditions: rating scale 0-100, 14 days after application
# Outline: as §1
# [6] = tested on: lambsquarters (Chenopodium album, CHEAL); experiment: as above; conditions: rating scale 0-100, 14 days after application
# Outline: as §1
# [7] = tested on: large crabgrass (Digitaria sanguinalis, DIGSA); experiment: as above; conditions: rating scale 0-100, 14 days after application
# Outline: as §1
# [8] = tested on: sicklepod (Cassia obtusifolia, CASOB); experiment: as above; conditions: rating scale 0-100, 14 days after application
# Outline: as §1
# [9] = tested on: velvetleaf (Abutilon theophrasti, ABUTH); experiment: as above; conditions: rating scale 0-100, 14 days after application
# Outline: as §1
# [10] = tested on: field corn (Zea mays L., var. Dekalb 535, CORN); experiment: Pre-emerge test, crop safety; conditions: rating scale 0-100, 14 days after application
# Outline: (§2)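 Plants grown in 10 cm pots of sandy loam mix received acetone-dissolved compounds through a moving flat-fan nozzle. Doses ranged from 15 to 1000 g ai/ha. Pre-emerge pots were seeded one day earlier, post-emerge pots 8–21 days earlier. Fourteen days on, each pot was graded 0–100 for damage.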
# [11] = tested on: upland rice (Oryza sp., var. Tebonnet, RICE); experiment: Pre-emerge test, crop safety; conditions: rating scale 0-100, 14 days after application
# Outline: as §2
# [12] = tested on: barnyardgrass (Echinochloa crus-galli, ECHCG); experiment: Post-emerge test, greenhouse herbicide activity screening; conditions: rating scale 0-100 (0 no damage, 100 complete death), 14 days after application
# Outline: (§3)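 Applied at 15–1000 g ai/ha from acetone in 187 l/ha spray volume. Post-emergence applications included 0.25% v/v non-ionic surfactant and reached plants sown 8–21 days before. Pre-emergence applications were incorporated by surface watering. Efficacy or crop damage was rated on a 0–100 scale after 14 days.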
# [13] = tested on: common ragweed (Ambrosia artemisizfolia L., AMBEL); experiment: as above; conditions: rating scale 0-100 (0 no damage, 100 complete death), 14 days after application
# Outline: as §3
# [14] = tested on: green foxtail (Setaria viridis, SETVI); experiment: as above; conditions: rating scale 0-100 (0 no damage, 100 complete death), 14 days after application
# Outline: as §3
# [15] = tested on: ivyleaf morningglory (Ipomoea hederacea, IPOHE); experiment: as above; conditions: rating scale 0-100 (0 no damage, 100 complete death), 14 days after application
# Outline: as §3
# [16] = tested on: johnsongrass (Sorghum halepense, SORHA); experiment: as above; conditions: rating scale 0-100 (0 no damage, 100 complete death), 14 days after application
# Outline: as §3
# [17] = tested on: lambsquarters (Chenopodium album, CHEAL); experiment: as above; conditions: rating scale 0-100 (0 no damage, 100 complete death), 14 days after application
# Outline: as §3
# [18] = tested on: large crabgrass (Digitaria sanguinalis, DIGSA); experiment: as above; conditions: rating scale 0-100 (0 no damage, 100 complete death), 14 days after application
# Outline: as §3
# [19] = tested on: redroot pigweed (Amaranthus retroflexus, AMARE); experiment: as above; conditions: rating scale 0-100 (0 no damage, 100 complete death), 14 days after application
# Outline: as §3
# [20] = tested on: sicklepod (Cassia obtusifolia, CASOB); experiment: as above; conditions: rating scale 0-100 (0 no damage, 100 complete death), 14 days after application
# Outline: as §3
# [21] = tested on: velvetleaf (Abutilon theophrasti, ABUTH); experiment: as above; conditions: rating scale 0-100 (0 no damage, 100 complete death), 14 days after application
# Outline: as §3
# [22] = tested on: field corn (Zea mays L., var. Dekalb 535, CORN); experiment: Post-emerge test, crop safety; conditions: rating scale 0-100 (0 no damage, 100 complete death), 14 days after application
# Outline: as §1
# [23] = tested on: upland rice (Oryza sp., var. Tebonnet, RICE); experiment: Post-emerge test, crop safety; conditions: rating scale 0-100 (0 no damage, 100 complete death), 14 days after application
# Outline: as §1
structure (smiles),measurement,setting,value
"COc1c(Cl)cc(F)c(-n2c(=O)cc(C(F)(F)F)n(C)c2=O)c1CC(Cl)C(=O)OCC(F)(F)C(F)(F)C(F)(F)F (single isomer, unassigned) [14-23]","Pre-emerge herbicidal activity, phytotoxicity rating AMARE",[1]; 63 g ai/ha,95
same,"Pre-emerge herbicidal activity, phytotoxicity rating AMARE",[1]; 250 g ai/ha,100
same,"Pre-emerge herbicidal activity, phytotoxicity rating ECHCG",[2]; 63 g ai/ha,10
same,"Pre-emerge herbicidal activity, phytotoxicity rating ECHCG",[2]; 250 g ai/ha,30
same,"Pre-emerge herbicidal activity, phytotoxicity rating SETVI",[3]; 63 g ai/ha,0
same,"Pre-emerge herbicidal activity, phytotoxicity rating SETVI",[3]; 250 g ai/ha,40
same,"Pre-emerge herbicidal activity, phytotoxicity rating IPOHE",[4]; 63 g ai/ha,0
same,"Pre-emerge herbicidal activity, phytotoxicity rating IPOHE",[4]; 250 g ai/ha,30
same,"Pre-emerge herbicidal activity, phytotoxicity rating SORHA",[5]; 63 g ai/ha,0
same,"Pre-emerge herbicidal activity, phytotoxicity rating SORHA",[5]; 250 g ai/ha,80
same,"Pre-emerge herbicidal activity, phytotoxicity rating CHEAL",[6]; 63 g ai/ha,0
same,"Pre-emerge herbicidal activity, phytotoxicity rating CHEAL",[6]; 250 g ai/ha,90
same,"Pre-emerge herbicidal activity, phytotoxicity rating DIGSA",[7]; 63 g ai/ha,30
same,"Pre-emerge herbicidal activity, phytotoxicity rating DIGSA",[7]; 250 g ai/ha,90
same,"Pre-emerge herbicidal activity, phytotoxicity rating CASOB",[8]; 63 g ai/ha,0
same,"Pre-emerge herbicidal activity, phytotoxicity rating CASOB",[8]; 250 g ai/ha,0
same,"Pre-emerge herbicidal activity, phytotoxicity rating ABUTH",[9]; 63 g ai/ha,0
same,"Pre-emerge herbicidal activity, phytotoxicity rating ABUTH",[9]; 250 g ai/ha,80
same,"Pre-emerge phytotoxicity rating, crop damage CORN",[10]; 63 g ai/ha,0
same,"Pre-emerge phytotoxicity rating, crop damage CORN",[10]; 250 g ai/ha,0
same,"Pre-emerge phytotoxicity rating, crop damage RICE",[11]; 63 g ai/ha,0
same,"Pre-emerge phytotoxicity rating, crop damage RICE",[11]; 250 g ai/ha,0
same,"Post-emerge Herbicidal Activity, phytotoxicity rating ECHCG",[12]; Rate 63 g ai/ha,100
same,"Post-emerge Herbicidal Activity, phytotoxicity rating ECHCG",[12]; Rate 250 g ai/ha,100
same,"Post-emerge Herbicidal Activity, phytotoxicity rating AMBEL",[13]; Rate 63 g ai/ha,50
same,"Post-emerge Herbicidal Activity, phytotoxicity rating AMBEL",[13]; Rate 250 g ai/ha,40
same,"Post-emerge Herbicidal Activity, phytotoxicity rating SETVI",[14]; Rate 63 g ai/ha,60
same,"Post-emerge Herbicidal Activity, phytotoxicity rating SETVI",[14]; Rate 250 g ai/ha,70
same,"Post-emerge Herbicidal Activity, phytotoxicity rating IPOHE",[15]; Rate 63 g ai/ha,80
same,"Post-emerge Herbicidal Activity, phytotoxicity rating IPOHE",[15]; Rate 250 g ai/ha,95
same,"Post-emerge Herbicidal Activity, phytotoxicity rating SORHA",[16]; Rate 63 g ai/ha,40
same,"Post-emerge Herbicidal Activity, phytotoxicity rating SORHA",[16]; Rate 250 g ai/ha,50
same,"Post-emerge Herbicidal Activity, phytotoxicity rating CHEAL",[17]; Rate 63 g ai/ha,50
same,"Post-emerge Herbicidal Activity, phytotoxicity rating CHEAL",[17]; Rate 250 g ai/ha,80
same,"Post-emerge Herbicidal Activity, phytotoxicity rating DIGSA",[18]; Rate 63 g ai/ha,50
same,"Post-emerge Herbicidal Activity, phytotoxicity rating DIGSA",[18]; Rate 250 g ai/ha,95
same,"Post-emerge Herbicidal Activity, phytotoxicity rating AMARE",[19]; Rate 63 g ai/ha,50
same,"Post-emerge Herbicidal Activity, phytotoxicity rating AMARE",[19]; Rate 250 g ai/ha,100
same,"Post-emerge Herbicidal Activity, phytotoxicity rating CASOB",[20]; Rate 63 g ai/ha,20
same,"Post-emerge Herbicidal Activity, phytotoxicity rating CASOB",[20]; Rate 250 g ai/ha,70
same,"Post-emerge Herbicidal Activity, phytotoxicity rating ABUTH",[21]; Rate 63 g ai/ha,50
same,"Post-emerge Herbicidal Activity, phytotoxicity rating ABUTH",[21]; Rate 250 g ai/ha,90
same,Post-emerge phytotoxicity rating CORN (crop damage),[22]; Rate 63 g ai/ha,0
same,Post-emerge phytotoxicity rating CORN (crop damage),[22]; Rate 250 g ai/ha,40
same,Post-emerge phytotoxicity rating RICE (crop damage),[23]; Rate 63 g ai/ha,0
same,Post-emerge phytotoxicity rating RICE (crop damage),[23]; Rate 250 g ai/ha,20
